One compound from patent US20230390304A1, “Method and Composition for Treating Epilepsy” (Lipocine Inc., priority 2022, published 2023) can be followed below.

The nature of this data set: Solubility of 3α-OH-5β-pregnan-20-one in SBE-β-CD (cyclodextrin) solution. In kind it is physicochemical. As to the method:
When utilizing sulfobutylether-β-cyclodextrin (SBE-3-CD) oral compositions including solubilized or semi solid 3α-OH-5β-pregnan-20-one, it may be challenging to load proper amounts of 3α-OH-5β-pregnan-20-one so as to deliver effective serum levels of 3α-OH-5β-pregnan-20-one due to limitations with respect to 3α-OH-5β-pregnan-20-one solubility in various cyclodextrin solutions including SBE-β-CD (e.g. only ˜6 mg/ml of 3α-OH-5β-pregnan-20-one solubility in 24% w/v non-encapsulated SBE-β-CD solution). The solubilized fraction of 3α-OH-5β-pregnan-20-one began to decline, as observed by precipitation, when 3α-OH-5β-pregnan-20-one concentration was above 8 mg/ml. The amount of 3α-OH-5β-pregnan-20-one in the cyclodextrin solution can only be enabled by about 0.6% w/w loading amount of the composition fill. Moreover, high cyclodextrin amounts required to solubilize 3α-OH-5β-pregnan-20-one also present safety concerns. In some aspects, the compositions and dosage forms of this invention can comprise higher 3α-OH-5β-pregnan-20-one loading amounts than ones formulated in non-encapsulated SBE-β-CD or any cyclodextrin solution composition.

Molecules are shown by their SMILES.

As to `CC(=O)[C@H]1CC[C@H]2[C@@H]3CC[C@@H]4C[C@H](O)CC[C@]4(C)[C@H]3CC[C@]12C` [3α-OH-5β-pregnan-20-one], where the note is “cyclodextrin (SBE-β-CD) solution”, the “3α-OH-5β-pregnan-20-one concentration above which the solubilized fraction began to decline, as observed by precipitation” value was “above 8 mg/ml”. For the same compound, the “loading amount of the composition fill enabled in the cyclodextrin solution” value (cyclodextrin solution) is recorded as “about 0.6 % w/w”. This compound also yielded a 3α-OH-5β-pregnan-20-one solubility (in 24% w/v non-encapsulated SBE-β-CD solution) of around 6000 µg/mL.
